From US20080293785A1, “SUBSTITUTED BENZOTHIAZOLE KINASE INHIBITORS” (priority 2006, published 2008)
pIC50: −log10 of the molar value.

How the values were obtained:
Type in all cases: biochemical
CDK1:Cyclin-B = target: T1, CDK1:Cyclin-B (Homo sapiens, UniProt P06493); experiment: CDK1 Screening Assay; details: 10 μM ATP, biotinylated histone-H1 peptide substrate, 33P-γ-ATP FlashPlate; read-out: Kinase IC50 CDK1
T1 construct: purchased New England Biolabs, Beverly, Mass; 6020; host or cells: insect cells
T1 sequence (P06493 whole entry): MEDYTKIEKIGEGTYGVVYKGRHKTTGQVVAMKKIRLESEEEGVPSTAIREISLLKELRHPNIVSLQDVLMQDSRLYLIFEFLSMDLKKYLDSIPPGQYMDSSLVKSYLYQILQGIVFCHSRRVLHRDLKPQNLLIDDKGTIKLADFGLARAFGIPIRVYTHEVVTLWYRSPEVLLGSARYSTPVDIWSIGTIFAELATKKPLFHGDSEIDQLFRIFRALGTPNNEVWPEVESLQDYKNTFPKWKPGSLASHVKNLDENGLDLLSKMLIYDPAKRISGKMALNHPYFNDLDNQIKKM
T1 sequence (P14635 whole entry partner): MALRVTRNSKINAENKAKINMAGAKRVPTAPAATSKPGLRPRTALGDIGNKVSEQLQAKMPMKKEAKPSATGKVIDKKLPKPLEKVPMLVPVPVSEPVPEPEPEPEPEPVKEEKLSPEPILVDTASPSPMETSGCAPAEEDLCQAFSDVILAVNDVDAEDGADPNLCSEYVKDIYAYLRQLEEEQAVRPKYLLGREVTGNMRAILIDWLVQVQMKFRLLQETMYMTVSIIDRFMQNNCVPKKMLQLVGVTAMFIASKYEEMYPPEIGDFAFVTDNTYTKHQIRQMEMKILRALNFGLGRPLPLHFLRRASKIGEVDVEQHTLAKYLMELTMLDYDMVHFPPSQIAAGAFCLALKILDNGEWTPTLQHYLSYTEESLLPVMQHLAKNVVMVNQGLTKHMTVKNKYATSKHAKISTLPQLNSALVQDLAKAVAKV
Experimental: (§1) A kinase reaction mixture was prepared containing 50 mM Tris.HCl pH=8, 10 mM MgCl2, 0.1 mM Na3PO4, 1 mM DTT, 10 μM ATP, 0.025 μM biotinylated histone-H1 peptide substrate and 0.2 μCuries per well ^33P-γ-ATP (2000-3000 Ci/mmol). 70 μL of the kinase reaction mixture was dispensed into the well of a streptavidin coated FlashPlate™ (Cat. # SMP103, NEN, Boston, Mass.). Then 1 μL of test compound stock in 100% DMSO was added to the wells resulting in a final concentration of 1% DMSO in the reaction well with a 100 μL final reaction well volume.
(§2) The CDK1:Cyclin-B protein was diluted in 50 mM Tris.HCl pH=8.0, 0.1% BSA at a concentration of 1 ng per μL and 30 μL (30 ng enzyme per test well) was added to each well to initiate the reaction. The reaction was incubated for one hour at 30° C. At the end of the one hour incubation, the reaction was terminated by aspirating the mixture from the plate and washing the wells twice with PBS containing 100 mM EDTA. The histone-H1 biotinylated peptide substrate became immobilized on the Flashplate™ and the incorporation of ^33P-γ-ATP was measured by reading the plate on a scintillation counter. Inhibition of the enzymatic activity of CDK1 was measured by observing a reduced amount of ^33P-γ-ATP incorporated into the immobilized peptide.
The CDK1 kinase used was isolated from insect cells expressing both the human CDK1 catalytic subunit and its positive regulatory subunit cyclin B (New England Biolabs, Beverly, Mass., Cat. # 6020).
(§3) An IC50 listed as >0.1, >1, >10 or >100 means no observed 50% inhibition at the indicated test concentration. […] ND means the compound was not tested in the assay specified.

CDK2:Cyclin A = target: T2, CDK2:Cyclin A (Homo sapiens, UniProt P24941); experiment: CDK2 Screening Assay; details: 10 μM ATP, biotinylated histone-H1 peptide substrate, 33P-γ-ATP FlashPlate; read-out: Kinase IC50 CDK2
T2 construct: purchased Upstate Biotech, Lake Placid, N.Y
Experimental: as §1
as §2, with “CDK2:Cyclin A” for “CDK1:Cyclin-B”, “CDK2” for “CDK1”
The CDK2 kinase used was complexed with cyclin A and is commercially available (Upstate Biotech, Lake Placid, N.Y.).
as §3

VEGF-R2 kinase domain = VEGF-R2 kinase domain (Rattus norvegicus, UniProt O08775); experiment: VEGF-R2 Screening Assay; details: 10 μM ATP, biotinylated PLC1 peptide substrate, 33P-γ-ATP FlashPlate; read-out: Kinase IC50 VEGFR
VEGF-R2 kinase domain, sequence (O08775 786-1343): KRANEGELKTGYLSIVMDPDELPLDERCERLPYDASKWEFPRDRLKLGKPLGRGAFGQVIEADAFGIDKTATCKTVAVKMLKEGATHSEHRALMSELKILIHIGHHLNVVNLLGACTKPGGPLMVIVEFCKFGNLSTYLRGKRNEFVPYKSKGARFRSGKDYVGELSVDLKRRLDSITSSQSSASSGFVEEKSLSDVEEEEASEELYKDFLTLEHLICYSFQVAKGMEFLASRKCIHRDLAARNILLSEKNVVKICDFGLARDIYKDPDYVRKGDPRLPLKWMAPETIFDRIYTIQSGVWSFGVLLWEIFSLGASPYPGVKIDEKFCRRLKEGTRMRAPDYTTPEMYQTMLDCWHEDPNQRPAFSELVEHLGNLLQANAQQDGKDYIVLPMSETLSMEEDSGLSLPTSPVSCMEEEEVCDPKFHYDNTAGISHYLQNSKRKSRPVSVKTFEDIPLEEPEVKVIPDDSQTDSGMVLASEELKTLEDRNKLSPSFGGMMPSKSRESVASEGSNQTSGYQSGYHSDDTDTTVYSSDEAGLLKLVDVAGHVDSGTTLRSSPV
Experimental: as §1, with “biotinylated” for “biotinylated histone-H1”, “0.8” for “0.2”
The soluble rat tyrosine kinase containing an N-terminal 6×HIS tag was diluted in 50 mM Tris.HCl pH=8.0, 0.1% BSA at a concentration of 5 ng per μL and 30 μL (150 ng enzyme per test well) was added to each well to initiate the reaction. The reaction was incubated for one hour at 30° C. At the end of the one hour incubation, the reaction was terminated by aspirating the reaction mixture from the plate and washing the wells twice with PBS containing 100 mM EDTA. The PLC1 biotinylated peptide substrate became immobilized on the Flashplate™ and the incorporation of ^33P-γ-ATP was measured by reading the plate on a scintillation counter. Inhibition of the enzymatic activity of the VEGF-R was measured by observing a reduced amount of ^33P-γ-ATP incorporated into the immobilized peptide.
The VEGF-R kinase assay was carried out using the CDK kinase assay procedure except that the enzyme was replaced with the VEGF-R2 fusion protein containing a polyhistidine tag at the N-terminus followed by amino acids 786-1343 of the rat VEGF-R2 kinase domain (GenBank Accession #U93306).
as §3

pIC50 (CDK1:Cyclin-B) | pIC50 (CDK2:Cyclin A) | pIC50 (VEGF-R2 kinase domain) | Compound
< 4.00 | 5.10 | < 4.00 | O=C(Nc1cccc2sc(Nc3ccccc3)nc12)c1ccco1 [Cpd 37, furan-2-carboxylic acid (2-phenylamino-benzothiazol-4-yl)-amide]
< 4.00 | 4.76 | < 4.00 | O=C(Nc1cccc2sc(Nc3ccccc3)nc12)c1ccccc1 [Cpd 9, N-(2-phenylamino-benzothiazol-4-yl)-benzamide]
< 4.00 | < 4.00 | < 4.00 | O=C(Nc1cccc2sc(Nc3ccccc3)nc12)C1CCCCCC1 [Cpd 55, cycloheptanecarboxylic acid (2-phenylamino-benzothiazol-4-yl)-amide]
< 4.00 | < 4.00 | < 4.00 | O=C(Nc1cccc2sc(Nc3ccccc3)nc12)NC1CCCCC1 [Cpd 61, 1-cyclohexyl-3-(2-phenylamino-benzothiazol-4-yl)-urea]
< 4.00 | < 4.00 | < 4.00 | O=C(CCc1ccccc1)Nc1cccc2sc(Nc3ccccc3)nc12 [Cpd 54, 3-phenyl-N-(2-phenylamino-benzothiazol-4-yl)-propionamide]
5.57 | 6.17 | ≤ 4.00 | Cc1ccc(F)c(C(=O)Nc2cccc3sc(Nc4ccc(N5CCN(C)CC5)cc4)nc23)c1F [Cpd 49, 2,6-difluoro-3-methyl-N-{2-[4-(4-methyl-piperazin-1-yl)-phenylamino]-benzothiazol-4-yl}-benzamide]
< 4.00 | 4.87 | < 4.00 | O=C(Nc1cccc2sc(Nc3ccccc3)nc12)c1ccc(-c2ccccc2)cc1 [Cpd 34, biphenyl-4-carboxylic acid (2-phenylamino-benzothiazol-4-yl)-amide]
< 4.00 | 4.94 | < 4.00 | O=C(Nc1cccc2sc(Nc3ccccc3)nc12)c1ccc2c(c1)OCO2 [Cpd 29, benzo[1,3]dioxole-5-carboxylic acid (2-phenylamino-benzothiazol-4-yl)-amide]
< 4.00 | < 4.00 | < 4.00 | O=C(Nc1cccc2sc(Nc3ccccc3)nc12)c1cc([N+](=O)[O-])cc([N+](=O)[O-])c1 [Cpd 43, 3,5-dinitro-N-(2-phenylamino-benzothiazol-4-yl)-benzamide]
< 4.00 | 5.12 | < 4.00 | O=C(Nc1cccc2sc(Nc3ccccc3)nc12)c1ccno1 [Cpd 18, isoxazole-5-carboxylic acid (2-phenylamino-benzothiazol-4-yl)-amide]
< 4.00 | 5.20 | < 4.00 | O=C(Nc1cccc2sc(Nc3ccccc3)nc12)c1ccccc1Br [Cpd 32, 2-bromo-N-(2-phenylamino-benzothiazol-4-yl)-benzamide]
4.26 | 5.52 | < 4.00 | O=C(Nc1cccc2sc(Nc3ccccc3)nc12)c1cc(C(F)(F)F)cc(C(F)(F)F)c1 [Cpd 31, N-(2-phenylamino-benzothiazol-4-yl)-3,5-bis-trifluoromethyl-benzamide]
< 4.00 | < 4.00 | < 4.00 | Cc1ccc(F)c(C(=O)N(C)c2cccc3sc(Nc4ccccc4)nc23)c1F [Cpd 62, 2,6-difluoro-3,N-dimethyl-N-(2-phenylamino-benzothiazol-4-yl)-benzamide]
< 4.00 | < 4.00 | < 4.00 | O=C(CC1CCCCC1)Nc1cccc2sc(Nc3ccccc3)nc12 [Cpd 58, 2-cyclohexyl-N-(2-phenylamino-benzothiazol-4-yl)-acetamide]
< 4.00 | < 5.00 | < 4.00 | COc1ccc(Nc2nc3c(NC(=O)c4c(F)ccc(C)c4F)cccc3s2)cc1 [Cpd 11, 2,6-difluoro-N-[2-(4-methoxy-phenylamino)-benzothiazol-4-yl]-3-methyl-benzamide]
4.37 | 5.40 | ≤ 4.00 | O=C(Nc1cccc2sc(Nc3ccccc3)nc12)c1cccnc1 [Cpd 36, N-(2-phenylamino-benzothiazol-4-yl)-nicotinamide]
< 4.00 | 5.51 | < 4.00 | Cc1ccc(Nc2nc3c(NC(=O)c4c(F)ccc(C)c4F)cccc3s2)cc1 [Cpd 14, 2,6-difluoro-3-methyl-N-(2-p-tolylamino-benzothiazol-4-yl)-benzamide]
< 4.00 | < 4.00 | < 4.00 | CCc1ccc(C(=O)Nc2cccc3sc(Nc4ccccc4)nc23)s1 [Cpd 42, 5-ethyl-thiophene-2-carboxylic acid (2-phenylamino-benzothiazol-4-yl)-amide]
4.76 | 5.43 | < 4.00 | O=C(Nc1c(Cl)cccc1Cl)Nc1cccc2sc(Nc3ccccc3)nc12 [Cpd 8, 1-(2,6-dichloro-phenyl)-3-(2-phenylamino-benzothiazol-4-yl)-urea]
5.78 | 6.51 | < 4.00 | O=C(Nc1cccc2sc(Nc3ccccc3)nc12)c1c(Cl)cc(Cl)cc1Cl [Cpd 44, 2,4,6-trichloro-N-(2-phenylamino-benzothiazol-4-yl)-benzamide]
5.88 | 6.66 | < 4.00 | O=C(Cn1cnnn1)Nc1cccc2sc(Nc3ccccc3)nc12 [Cpd 22, N-(2-phenylamino-benzothiazol-4-yl)-2-tetrazol-1-yl-acetamide]
< 4.00 | 4.05 | < 4.00 | O=C(Nc1cccc2sc(Nc3ccccc3)nc12)c1ccncn1 [Cpd 15, pyrimidine-4-carboxylic acid (2-phenylamino-benzothiazol-4-yl)-amide]
< 4.00 | 4.88 | < 4.00 | CC(C)(C)C(=O)Nc1cccc2sc(Nc3ccccc3)nc12 [Cpd 57, 2,2-dimethyl-N-(2-phenylamino-benzothiazol-4-yl)-propionamide]
< 4.00 | 5.69 | ≤ 4.00 | O=C(Nc1cccc2sc(Nc3ccccc3)nc12)C1CCCCC1 [Cpd 41, cyclohexanecarboxylic acid (2-phenylamino-benzothiazol-4-yl)-amide]
< 4.00 | 5.93 | < 4.00 | O=C(Cc1ccccc1)Nc1cccc2sc(Nc3ccccc3)nc12 [Cpd 51, 2-phenyl-N-(2-phenylamino-benzothiazol-4-yl)-acetamide]
4.91 | 5.78 | < 4.00 | O=C(Nc1cccc2sc(Nc3ccccc3)nc12)c1ccncc1 [Cpd 28, N-(2-phenylamino-benzothiazol-4-yl)-isonicotinamide]
5.37 | 6.21 | < 4.00 | O=C(Nc1cccc2sc(Nc3ccccc3)nc12)c1c(Cl)cccc1Cl [Cpd 47, 2,6-dichloro-N-(2-phenylamino-benzothiazol-4-yl)-benzamide]
